Values after ≈ are worked out from the molar mass of the structure shown. Active and inactive are the calls of the source. The rule behind the calls is not given here.
Assays:
[1] = Cytotoxicity against human HepG2 cells after 24 hrs by MTT assay; assay type: cell-based
Liver microsomes = test: Metabolic stability in human liver microsomes; assay type: ADME, Microsome
Plasma [2] = test: Metabolic stability in mouse plasma; assay type: ADME, cell-free
[3] = Chemical stability in buffer; assay type: physicochemical
[4] = Antiproliferative activity against human K562 cells after 72 hrs by electronic cell analysis; assay type: cell-based
[5] = Cytotoxicity against human HEK293 cells after 24 hrs by MTT assay; assay type: cell-based
Plasma [6] = test: Metabolic stability in human plasma; assay type: ADME, cell-free
Liver = test: Metabolic stability in mouse liver microsomes; assay type: ADME, Microsome
[7] = tested on: Mycolicibacterium fortuitum; test: Antimycobacterial activity against Mycobacterium fortuitum B; assay type: functional
[8] = tested on: Mycolicibacterium smegmatis; test: Antimycobacterial activity against Mycobacterium smegmatis 700084 after 48 hrs by broth microdilution assay; assay type: functional; details: Mycolicibacterium smegmatis, 700084, 48 h
[9] = Antiproliferative activity against human HUVEC cells after 72 hrs by methylene blue staining; assay type: cell-based
[10] = Cytotoxicity against human HeLa cells after 72 hrs by methylene blue staining; assay type: cell-based
[11] = Therapeutic index, ratio of GI50 for human K562 cells to MIC for Mycobacterium smegmatis 700084; assay type: cell-based; details: read-out: TI
[12] = Therapeutic index, ratio of GI50 for human HUVEC cells to MIC for Mycobacterium smegmatis 700084; assay type: cell-based; details: read-out: TI
[13] = Kinetic solubility of the compound at pH 7.4; assay type: physicochemical; details: buffer; for solubility kinetic: read-out: Kinetic_solubility
[14] = tested on: Mycolicibacterium smegmatis; test: Ratio of MIC for Mycobacterium smegmatis 700084 in […] to MIC for Mycobacterium smegmatis 700084 in MHB medium; assay type: functional
[15] = Therapeutic index, ratio of CC50 for human HeLa cells to MIC for Mycobacterium smegmatis 700084; assay type: cell-based; details: read-out: TI
Mycolicibacterium aurum = test: Antimycobacterial activity against Mycobacterium aurum SB66; assay type: functional, organism-based
[16] = tested on: Mycobacterium tuberculosis; test: Antimycobacterial activity against Mycobacterium tuberculosis H37Rv expressing GFP; assay type: functional
[17] = tested on: Mycobacterium tuberculosis; test: Ratio of isoniazid MIC to compound MIC for Mycobacterium tuberculosis H37Rv; assay type: functional

Row | SMILES | CC50 at 24 h [1] | Stability (Liver microsomes) | Stability (Plasma [2]) | Stability [3] | GI50 at 72 h [4] | CC50 at 24 h [5] | Stability (Plasma [6]) | Stability (Liver) | MIC [7] | MIC [8] | GI50 at 72 h [9] | CC50 at 72 h [10] | solubility kinetic [13] | further results
1 | Cc1ccc(CNc2nc(=O)c3cc(C(F)(F)F)cc([N+](=O)[O-])c3s2)n1C | > 10 µM | 28% | 93% | 14% | 21 µM | > 10 µM | 108% | 37% | 0.05 µg/mL (≈ 0.126 µM) | 0.125 µg/mL (≈ 0.314 µM) | 17 µM | 48 µM |  | 
2 | O=c1nc(N2CCC(c3ccccc3)CC2)sc2c([N+](=O)[O-])cc(C(F)(F)F)cc12 | > 10 µM | 120% | 71% | 82% | > 50 µM | > 10 µM | 96% | 75% | 0.0125 µg/mL (≈ 0.0287 µM) | 0.004 µg/mL (≈ 0.00919 µM) | > 50 µM | > 50 µM | 0.06 µM (≈ 0.0261 µg/mL) | selectivity ratio [11]: > 12500; selectivity ratio [12]: > 12500; Ratio [14]: 3; selectivity ratio [15]: > 12500
3 | O=C(c1ccoc1)N1CCN(c2nc(=O)c3cc(C(F)(F)F)cc([N+](=O)[O-])c3s2)CC1 |  |  |  |  |  |  |  |  |  |  |  |  | 21.8 µM (≈ 9.91 µg/mL) | 
4 | COC(=O)C1CN(c2nc(=O)c3cc(C(F)(F)F)cc([N+](=O)[O-])c3s2)CCC12OC[C@H](C)O2 (some centres undefined) | > 10 µM | 81% | 56% | 98% | 22 µM | > 10 µM | 51% | 29% | 0.0125 µg/mL (≈ 0.0255 µM) | 0.015 µg/mL (≈ 0.0306 µM) | 16 µM | 36 µM |  | 
5 | CN(C(=O)CN1CCN(c2nc(=O)c3cc(C(F)(F)F)cc([N+](=O)[O-])c3s2)CC1)c1ccccc1 | > 10 µM | 13% | 115% | 78% | 30 µM | > 10 µM | 95% | 2% | 0.0125 µg/mL (≈ 0.0246 µM) | 0.015 µg/mL (≈ 0.0296 µM) | 18 µM | 39 µM | 11.9 µM (≈ 6.04 µg/mL) | 
6 | O=c1nc(NCc2ccc3c(c2)OCCO3)sc2c([N+](=O)[O-])cc(C(F)(F)F)cc12 | > 10 µM | 43% | 114% | 91% | 37 µM | > 10 µM | 86% | 32% | 0.012 µg/mL (≈ 0.0273 µM) | 0.004 µg/mL (≈ 0.0091 µM) | 20 µM | 41 µM |  | 
7 | CCCOCC1COC2(CCN(c3nc(=O)c4cc(C(F)(F)F)cc([N+](=O)[O-])c4s3)CC2)O1 (centres undefined) | > 10 µM | 6% | 103% | 99% | > 50 µM | > 10 µM | 98% | 9% | 0.0031 µg/mL (≈ 0.00633 µM) | 0.004 µg/mL (≈ 0.00817 µM) | > 50 µM | 43 µM |  | 
8 | C[C@H]1COC2(CCN(c3nc(=O)c4cc(C(F)(F)F)cc([N+](=O)[O-])c4s3)CC2)O1 [BTZ-043] | > 10 µM | 98% | 97% | 98% | 11 µM | > 10 µM | 107% | 45% | 0.00156 µg/mL (≈ 0.00362 µM) | 0.008 µg/mL (≈ 0.0185 µM) | 8 µM | > 50 µM | 6.8 µM (≈ 2.93 µg/mL) | Activity (Mycolicibacterium aurum): inactive; selectivity ratio [11]: 1190; MIC [16]: 0.001 µg/mL (≈ 0.00232 µM); Ratio [17]: 20; selectivity ratio [12]: 1190; selectivity ratio [15]: > 6250
9 | CN(Cc1ccoc1)c1nc(=O)c2cc(C(F)(F)F)cc([N+](=O)[O-])c2s1 |  |  |  |  |  |  |  |  |  |  |  |  |  | Kinetic_solubility [13]: soluble
10 | O=c1nc(N2CCC(F)(F)CC2)sc2c([N+](=O)[O-])cc(C(F)(F)F)cc12 | > 10 µM | 61% | 92% | 101% |  | > 10 µM | 64% | 80% | > 0.1 µg/mL | 0.25 µg/mL (≈ 0.632 µM) |  |  | 8.1 µM (≈ 3.2 µg/mL) | 
11 | O=c1nc(NCc2ccco2)sc2c([N+](=O)[O-])cc(C(F)(F)F)cc12 |  |  |  |  |  |  |  |  |  |  |  |  | 1.63 µM (≈ 0.605 µg/mL) | 
12 | CN(C)C(=O)C1CCN(c2nc(=O)c3cc(C(F)(F)F)cc([N+](=O)[O-])c3s2)CC1 |  |  |  |  |  |  |  |  |  |  |  |  |  | Kinetic_solubility [13]: soluble
13 | CN(C)c1ccc(CN(C)c2nc(=O)c3cc(C(F)(F)F)cc([N+](=O)[O-])c3s2)cc1 | > 10 µM | 6% | 104% | 95% | > 50 µM | > 10 µM | 90% | 8% | 0.00625 µg/mL (≈ 0.0143 µM) | 0.001 µg/mL (≈ 0.00228 µM) | > 50 µM | > 50 µM |  | selectivity ratio [11]: > 50000; selectivity ratio [12]: > 50000; selectivity ratio [15]: > 50000
14 | CN(c1nc(=O)c2cc(C(F)(F)F)cc([N+](=O)[O-])c2s1)[C@H]1CCN(Cc2ccccc2)C1 | > 10 µM | 6% | 114% | 96% | 30 µM | > 10 µM | 92% | 7% |  | 0.004 µg/mL (≈ 0.00861 µM) | 18 µM | 38 µM | 2.97 µM (≈ 1.38 µg/mL) | 
15 | CCN(CCN(C)C)c1nc(=O)c2cc(C(F)(F)F)cc([N+](=O)[O-])c2s1 |  |  |  |  |  |  |  |  |  |  |  |  | 10.6 µM (≈ 4.14 µg/mL) | 
16 | O=c1nc(N2CCN(c3nccs3)CC2)sc2c([N+](=O)[O-])cc(C(F)(F)F)cc12 | > 10 µM | 42% | 111% | 98% |  | > 10 µM | 99% | 13% | 0.025 µg/mL (≈ 0.0564 µM) | 0.25 µg/mL (≈ 0.564 µM) |  |  |  | 
17 | Cc1ccc(CNc2nc(=O)c3cc(C(F)(F)F)cc([N+](=O)[O-])c3s2)o1 |  |  |  |  |  |  |  |  |  |  |  |  | 1.82 µM (≈ 0.701 µg/mL) | 
18 | COC(=O)[C@@H]1OC2(CCN(c3nc(=O)c4cc(C(F)(F)F)cc([N+](=O)[O-])c4s3)CC2)O[C@H]1c1ccccc1 | > 10 µM |  | 88% | 82% | > 50 µM | > 10 µM | 90% |  | 0.00625 µg/mL (≈ 0.0113 µM) | 0.015 µg/mL (≈ 0.0272 µM) | > 50 µM | > 50 µM |  | 

Source: ChEMBL document CHEMBL2177104, “Identification of antitubercular benzothiazinone compounds by ligand-based design” (J Med Chem, 2012)
